The source made the active and inactive calls.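 How the source made its calls: active means fitted curve reaches 40% activation below the top valid tested dose, in every test run; inconclusive means test runs disagree on the call; inactive means the rest, including effects opposite to the expected direction.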

Among the data in PubChem BioAssay AID977605 (Broad Institute, 2014) are activation values, retold here.

One assay can be described thus: endothelial E-selectin upregulation by compounds – imaging, HUVEC, cherry-picked samples, dose response (AID 977605).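 Further: signal is the share of imaged cells scored positive for E-selectin.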 The settings on record: HUVEC E-selectin immunostaining, at 19.5 µM (top of the series), percent of TNF-alpha response over vehicle.
For `C[C@@H]1CN([C@H](C)CO)C(=O)c2cc(N(C)C)ccc2O[C@H]1CN(C)Cc1ccc(C(=O)O)cc1`, the activation is -0.039% (inactive).
Turning to `C[C@@H]1CN([C@@H](C)CO)C(=O)c2cc(NC(=O)Cn3cnnn3)ccc2O[C@@H]1CN(C)Cc1ccc(Oc2ccccc2)cc1`, the activation was -0.116% (inactive).
Take `O=C(Nc1cc(C(F)(F)F)cc(C(F)(F)F)c1)Nc1cnn(-c2ccc([N+](=O)[O-])cc2)c1C(F)(F)F`: the activation is 0.091% (inactive).
Same read-out and setting: then `CC(C)NC(=O)N(C)C[C@H]1Oc2ccc(NC(=O)CCC(F)(F)F)cc2CC(=O)N([C@H](C)CO)C[C@@H]1C`, with -0.115% (inactive); and `O=C(NCc1ccccc1)C1CCCN(S(=O)(=O)c2ccc(-n3cnnn3)cc2)C1` (stereo unspecified), with 1.85% (inactive); and `COc1cccc(-c2cccc(-c3nc(C(=O)Nc4ccc(-c5ccccc5)cc4)cc4c3[C@@H](CCO)N(S(=O)C(C)(C)C)C4)c2)c1` (stereo partly specified), with 1.45% (inactive).
In the case of `CNS(=O)(=O)c1ccc(NC(=O)C2CC(=O)N(c3ccc(Cl)cc3)C2)cc1` (stereo unspecified), the activation is -0.269% (inactive).
For the compound `CCCCNC(=O)N1CCN(c2ccccc2OCC)CC1`, the activation was 0.12% (inactive).
Consider `C[C@H]1CN([C@@H](C)CO)C(=O)c2cc(NC(=O)Cn3cnnn3)ccc2O[C@H]1CN(C)S(=O)(=O)c1ccccc1`, for which the activation is -0.003% (inactive).
Take `C[C@H]1CN([C@@H](C)CO)C(=O)Cc2cc(NC(=O)Cc3cn(C)c4ccccc34)ccc2O[C@H]1CN(C)Cc1ccc(C(F)(F)F)cc1`: the activation was 16.2% (inactive).
Same read-out and setting: then `Cc1ccccc1CCN1CCCC(CN(C)C(=O)c2ccc3ncccc3c2)C1` (stereo unspecified), with 36.6% (inactive); and `CC(C)NC(=O)N(C)C[C@@H]1Oc2ccc(NC(=O)CCN3CCOCC3)cc2C(=O)N([C@H](C)CO)C[C@H]1C`, with -0.003% (inactive); and `CCCCC1C(=O)N(c2ccccc2)N(c2ccc(O)cc2)C1=O` (stereo unspecified), with -0.246% (inactive).
As to `Cc1ccc(S(=O)(=O)N[C@@H](Cc2ccccc2)C(=O)N2CCC(C(=O)N[C@@H](CCC(N)=O)C(=O)O)CC2)cc1`, the activation was 0.009% (inactive).
On to `C=CCn1c(=N)n(CC(=O)c2ccc(Br)s2)c2ccccc21`, for which the activation is 1.81% (inactive).
Consider `C[C@H]1CN([C@@H](C)CO)C(=O)c2cc(NC(=O)Nc3ccc4c(c3)OCO4)ccc2O[C@@H]1CN(C)S(=O)(=O)c1ccc(F)cc1`, for which the activation is -0.105% (inactive).
Consider `O=C(CN(CC1CCCO1)C(=O)CNS(=O)(=O)c1ccccc1)NCc1ccc(F)cc1` (stereo unspecified), for which the activation was 1.46% (inactive).
On to `CC(C)NC(=O)N(C)C[C@@H]1Oc2ccc(NS(=O)(=O)c3cccs3)cc2CC(=O)N([C@H](C)CO)C[C@@H]1C`, for which the activation is 1.19% (inactive).
For the compound `COC(=O)C[C@H]1CC[C@H]2[C@@H](COc3ccc(NC(=O)C4CC4)cc3C(=O)N2C)O1`, the activation was 3.57% (inactive).
In the case of `Cc1cc(C(=O)Nc2ccc(Cl)cc2)n(-c2ccccc2)n1`, the activation was 0.412% (inactive).
As to `C[C@@H]1CN([C@H](C)CO)C(=O)c2cc(NC(=O)Cc3cn(C)c4ccccc34)ccc2O[C@H]1CN(C)Cc1ccc(Cl)c(Cl)c1`, the activation is 4.38% (inactive).
For `C[C@@H]1CN([C@H](C)CO)C(=O)c2cccc(NC(=O)Nc3ccc(F)cc3)c2O[C@H]1CN(C)Cc1ccncc1`, the activation was -0.015% (inactive).
Regarding `C[C@@H]1CCCCO[C@@H](CN(C)C(=O)Cc2ccccc2)[C@@H](C)CN([C@H](C)CO)C(=O)c2cc(NS(=O)(=O)c3cccs3)ccc2O1`, the activation was 0.129% (inactive).
`COc1ccc(CN(C)C[C@@H]2Oc3ccc(NC(=O)c4ccncc4)cc3C(=O)N([C@@H](C)CO)C[C@H]2C)cc1`: the activation was 19.2% (inactive).
Same read-out and setting: then `C[C@@H]1CN([C@H](C)CO)C(=O)c2cc(NS(=O)(=O)c3ccccc3)ccc2O[C@@H]1CN(C)C(=O)NC1CCCCC1`, with -0.139% (inactive); and `C[C@@H]1CN([C@@H](C)CO)C(=O)c2cc(C#CC3CC3)cnc2O[C@@H]1CN(C)C(=O)c1ccccc1`, with -0.295% (inactive).
As for `C[C@H](CO)N1C[C@H](C)[C@H](CN(C)S(=O)(=O)c2ccc(Cl)cc2)Oc2ccc(NC(=O)Cc3ccccc3)cc2C1=O`, the activation was -0.076% (inactive).
`CCn1c(SCC(=O)Nc2cccc(C)c2)nc2c(c1=O)SC(C)C2` (stereo unspecified): the activation was -0.269% (inactive).
Take `C[C@H](CO)N1C[C@H](C)[C@H](CN(C)Cc2ccc3c(c2)OCO3)Oc2ccc(NC(=O)Cc3cn(C)c4ccccc34)cc2C1=O`: the activation is 0.14% (inactive).
Regarding `C[C@@H]1CN([C@@H](C)CO)C(=O)c2cccc(NC(=O)c3ccc(-c4nccs4)cc3)c2O[C@H]1CN(C)Cc1ccc(Oc2ccccc2)cc1`, the activation was 3.4% (inactive).
As to `Cc1cc2cc(CNC(=O)c3ccc(S(=O)(=O)N4CCCCC4)cc3)ccc2n1C`, the activation is 0.135% (inactive).
For `COc1ccc(NC(=O)N(C)C[C@H]2Oc3c(NS(=O)(=O)c4cn(C)cn4)cccc3C(=O)N([C@@H](C)CO)C[C@@H]2C)cc1`, the activation was 0.542% (inactive).
Consider `C[C@@H]1CN([C@@H](C)CO)C(=O)c2cc(NS(=O)(=O)c3cccs3)ccc2O[C@@H]1CN(C)C(=O)Nc1ccc2c(c1)OCO2`, for which the activation was -0.086% (inactive).
Regarding `C[C@@H]1CN([C@H](C)CO)C(=O)c2cccc(NC(=O)C3CC3)c2O[C@@H]1CN(C)Cc1ccccc1`, the activation is 0.474% (inactive).
As to `Cc1cccc(CC(=O)Nc2sc(C(C)C)cc2C(=O)N2CCOCC2)c1`, the activation is 0.007% (inactive).
Same read-out and setting: then `C[C@H]1CN([C@@H](C)CO)C(=O)c2cc(NC(=O)CCC(F)(F)F)ccc2O[C@@H]1CN(C)Cc1ccc(C(F)(F)F)cc1`, with 0.111% (inactive); and `CC(=O)Nc1ccc(CNc2nc(NC(C)C)nc3cc(-c4ccccc4)sc23)cc1`, with 1.22% (inactive).
For the compound `C/C(=N\NC(=O)c1cc(C(C)C)[nH]n1)c1ccco1`, the activation was 0.133% (inactive).

Still in this assay, the particulars now being: HUVEC E-selectin immunostaining, at 21 µM (top of the series), percent of TNF-alpha response over vehicle.
As to `COc1ccc(CN(C)C[C@@H]2Oc3c(NC(=O)c4cnccn4)cccc3C(=O)N([C@@H](C)CO)C[C@H]2C)cc1`, the activation was -0.033% (inactive).
As for `COc1ccc(S(=O)(=O)N(C)C[C@@H]2Oc3ccc(NC(=O)CCCN(C)C)cc3C(=O)N([C@@H](C)CO)C[C@@H]2C)cc1`, the activation was -0.143% (inactive).
In the case of `C[C@H](CO)N1C[C@H](C)[C@H](CN(C)C)Oc2ccc(NC(=O)Nc3ccccc3)cc2CC1=O`, the activation was -0.138% (inactive).
The same measure, in the same setting: then `C[C@@H]1CN([C@@H](C)CO)C(=O)Cc2cc(NS(=O)(=O)c3ccc(F)cc3)ccc2O[C@@H]1CN(C)S(=O)(=O)c1ccc(Cl)cc1`, with -0.065% (inactive); and `C[C@H]1CN([C@@H](C)CO)C(=O)c2cc(NC(=O)Cn3cnnn3)ccc2O[C@@H]1CN(C)Cc1ccc2c(c1)OCO2`, with -0.073% (inactive); and `C[C@H](CO)N1C[C@H](C)[C@H](CN(C)S(=O)(=O)c2ccccc2)Oc2c(NC(=O)C3CCOCC3)cccc2C1=O`, with 3.15% (inactive).
`Cc1noc(C)c1S(=O)(=O)Nc1ccc2c(c1)C(=O)N([C@H](C)CO)C[C@@H](C)[C@H](CN(C)Cc1ccncc1)O2`: the activation was -0.191% (inactive).
Regarding `C[C@@H]1CN([C@H](C)CO)C(=O)c2cc(NS(C)(=O)=O)ccc2O[C@H]1CN(C)C(=O)Nc1ccc2c(c1)OCO2`, the activation was 0.437% (inactive).
